Structures can show the parent of a compound that is named as a salt.

Data on 26 compounds can be found in patent publication US12180226B2, “Spirotricycle RIPK1 inhibitors and methods of uses thereof” (Merck Sharp & Dohme LLC, priority 2021, dated 2024).

Sequence of RIPK1 (recombinant GST-RIPK1 kinase domain, residues 1-327) (Q13546 1-327): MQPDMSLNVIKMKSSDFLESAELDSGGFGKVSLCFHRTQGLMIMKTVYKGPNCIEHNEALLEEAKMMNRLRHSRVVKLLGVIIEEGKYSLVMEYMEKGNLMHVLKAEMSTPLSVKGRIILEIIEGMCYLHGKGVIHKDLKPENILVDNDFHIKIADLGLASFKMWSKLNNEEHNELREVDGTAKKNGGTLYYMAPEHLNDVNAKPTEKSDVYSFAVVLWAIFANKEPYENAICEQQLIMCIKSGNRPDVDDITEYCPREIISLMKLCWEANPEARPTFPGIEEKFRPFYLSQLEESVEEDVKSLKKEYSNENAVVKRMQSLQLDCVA

The target in the test is RIPK1 (recombinant GST-RIPK1 kinase domain, residues 1-327) (Homo sapiens (Human), UniProt Q13546). In words: RIPK1-ADP-Glo Enzymatic Assay. Type of test: biochemical. The settings on record: ADP-Glo; 25 nM GST-RIPK1, 300 μM ATP; assay lower limit ~25 nM; read-out: RIPK1 V0 Ec50. The procedure, abridged:
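Compounds titrated 10-pt 1:3 from 100000 nM top (1% DMSO); 30 min preinc w/ 25 nM Sf21-expressed enzyme, RT; start w/ ATP (300 μM final) + dephos-MBP (3 μM); 150 min; ADP-Glo lumi; 4-param fit → EC50.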
A general note: ADP-Glo first removes unused ATP, then detects ADP through luciferase.
Turning to `O=C1N2[C@@H](CC[C@H]2c2ccccc2)OC12CCN(c1ncc(C3CC3)cn1)CC2` [Example 11.13, (5′S,7a′R)-1-(5-cyclopropylpyrimidin-2-yl)-5′-phenyltetrahydro-3′H-spiro[piperidine-4,2′-pyrrolo[2,1-b][1,3]oxazol]-3′-one], the concentration giving a half-maximal response (EC50) was found to be 266 nM. As for `O=C1N2[C@@H](CC[C@H]2c2cc(F)cc(F)c2)OC12CCN(S(=O)(=O)c1cccc(F)c1)CC2` [Example 8.4, (5′S,7a′R)-5′-(3,5-difluorophenyl)-1-[(3-fluorophenyl)sulfonyl] tetrahydro-3′H-spiro[piperidine-4,2′-pyrrolo[2,1-b][1,3]oxazol]-3′-one], the EC50 is 672 nM.

For the compound `Cn1nc(C(F)(F)F)cc1-c1ccc(N2CCC3(CC2)O[C@@H]2CC[C@@H](c4ccccc4)N2C3=O)n2ncnc12` [Example 21.20, (5′S,7a′R)-1-{8-[1-methyl-3-(trifluoromethyl)-1H-pyrazol-5-yl][1,2,4]triazolo[1,5-a]pyridin-5-yl}-5′-phenyltetrahydro-3′H-spiro[piperidine-4,2′-pyrrolo[2,1-b][l,3]oxazol]-3′-one], the half-maximal effective concentration (EC50) was less than 25 nM.

Consider `Cc1nc(N2CCC3(CC2)O[C@@H]2CC[C@@H](c4ccccc4)N2C3=O)ccc1F` [Example 11.33, (5′S,7a′R)-1-(5-fluoro-6-methylpyridin-2-yl)-5′-phenyltetrahydro-3′H-spiro[piperidine-4,2′-pyrrolo[2,1-b][1,3]oxazol]-3′-one], for which the EC50 was less than 25 nM. Take `Cc1c(Cl)ncnc1N1CCC2(CC1)O[C@@H]1CC[C@@H](c3ccccc3)N1C2=O` [Example 4.30, (5′S,7a′R)-1-(6-chloro-5-methylpyrimidin-4-yl)-5′-phenyltetrahydro-3′H-spiro[piperidine-4,2′-pyrrolo[2,1-b] [1,3]oxazol]-3′-one]: the EC50 is less than 25 nM.

Take `O=C1N2[C@@H](CC[C@H]2c2cc(F)cc(F)c2)OC12CCN(c1ccc(-c3ncco3)c3ncnn13)CC2` [Example 21.1, (5′S,7a′R)-5′-(3,5-Difluorophenyl)-1-(8-(oxazol-2-yl)-[1,2,4]triazolo[1,5-a]pyridin-5-yl)tetrahydro-3′H-spiro[piperidine-4,2′-pyrrolo[2,1-b]oxazol]-3′-one]: the half-maximal effective concentration (EC50) was less than 25 nM. Take `O=C1N2[C@@H](CC[C@H]2c2ccccc2)OC12CCN(c1cc(-c3ccsc3)ccn1)CC2` [Example 4.170, (5′S,7a′R)-5′-phenyl-1-[4-(thiophen-3-yl)pyridin-2-yl]tetrahydro-3′H-spiro[piperidine-4,2′-pyrrolo[2,1-b] [1,3]oxazol]-3′-one]: the EC50 is less than 25 nM.

As for `O=C(c1cc(F)ccc1F)N1CC2(C1)O[C@@H]1CC[C@@H](c3ccccc3F)N1C2=O` [Example 1.18, (5′S,7a′R)-1-(2,5-difluorobenzoyl)-5′-(2-fluorophenyl)tetrahydro-3′H-spiro[azetidine-3,2′-pyrrolo[2,1-b]oxazol]-3′-one], the 50% effective concentration (EC50) stood at 39 nM. In the case of `O=C(c1ccccc1)N1CC2(C1)O[C@@H]1CC[C@@H](c3ccccc3F)N1C2=O` [Example 1.19, (5′S,7a′R)-1-benzoyl-5′-(2-fluorophenyl)tetrahydro-3′H-spiro[azetidine-3,2′-pyrrolo[2,1-b]oxazol]-3′-one] it was 82.9 nM; in that of `O=C(c1cn2ccccc2n1)N1CCC2(CC1)O[C@@H]1CC[C@@H](c3cc(F)cc(F)c3)N1C2=O` [Example 5.71, (5′S,7a′R)-5′-(3,5-difluoro-phenyl)-1-(imidazo[1,2-a]-pyridine-2-carbonyl)tetra-hydro-3′H-spiro[piperidine-4,2′-pyrrolo[2,1-b]oxazol]-3′-one], 155 nM; in that of `COc1cccc([C@@H]2CC[C@H]3OC4(CCN(c5ccc(C#N)c6ncnn56)CC4)C(=O)N32)c1` [Example 20.2, 5-[(5′S,7a′R)-5′-(3-methoxyphenyl)-3′-oxotetrahydro-1H,3′H-spiro[piperidine-4,2′-pyrrolo[2,1-b][1,3]oxazol]-1-yl][1,2,4]triazolo[1,5-a]pyridine-8-carbonitrile], 25 nM. The same measure for `N#CC1(NC(=O)c2nc(N3CCC4(CC3)O[C@@H]3CC[C@@H](c5cc(F)cc(F)c5)N3C4=O)ncc2F)CC1` [Example 7.12, N-(1-cyanocyclopropyl)-2-[(5′S,7a′R)-5′-(3,5-difluorophenyl)-3'-oxotetrahydro-1H,3′H-spiro[piperidine-4,2′-pyrrolo[2,1-b][1,3]oxazol]-1-yl]-5-fluoropyrimidine-4-carboxamide]: 165 nM; for `O=C1N2[C@H](OC13CCN(c1ccnc4ccnn14)CC3)[C@H](O)C[C@H]2c1ccccc1` [Example 4.248, (5′S,7′R,7a′R)-7′-hydroxy-5′-phenyl-1-(pyrazolo[1,5-a]pyrimidin-7-yl)tetrahydro-3′H-spiro[piperidine-4,2′-pyrrolo[2,1-b] [1,3]oxazol]-3′-one]: 33.7 nM. In the case of `O=C1N2[C@@H](CC[C@H]2c2ccccc2)OC12CCN(c1cccc3ncnn13)CC2F` (single isomer, unassigned) [Example 13.17, (3[R or S], 4[S or R], 5′S,7a′R)-1-([1,2,4]triazolo[1,5-a]pyridin-5-yl)-3-fluoro-5′-phenyltetrahydro-3′H-spiro[piperidine-4,2′-pyrrolo[2,1-b]oxazol]-3′-one, TFA salt] it was less than 25 nM. Consider `N#Cc1ccc(N2CCC3(CC2)O[C@@H]2CC[C@@H](c4ccccc4)N2C3=O)n2ncc(C(F)F)c12` [Example 4.179, 3-(difluoromethyl)-7-[(5′S,7a′R)-3′-oxo-5′-phenyltetrahydro-1H,3′H-spiro[piperidine-4,2′-pyrrolo[2,1-b] [1,3]oxazol]-1-yl]pyrazolo[1,5-a] pyridine-4-carbonitrile], for which the concentration for a half-maximal effect (EC50) was less than 25 nM.

Consider `N#Cc1ccccc1C(=O)N1CCC2(CC1)O[C@@H]1CC[C@@H](c3cccc(F)c3)N1C2=O` [Example 6.129, 2-[(5′S,7a′R)-5′-(3-fluorophenyl)-3′-oxotetrahydro-1H,3′H-spiro[piperidine-4,2′-pyrrolo[2,1-b][1,3]-oxazole]-1-carbonyl] benzonitrile], for which the 50% effective concentration (EC50) stood at 188 nM. In the case of `CCc1cnc(N2CCC3(CC2)O[C@@H]2CC[C@@H](c4cc(F)cc(F)c4)N2C3=O)nc1` [Example 4.60, (5′S,7a′R)-5′-(3,5-difluorophenyl)-1-(5-ethylpyrimidin-2-yl)tetrahydro-3′H-spiro[piperidine-4,2′-pyrrolo[2,1-b] [1,3]oxazol]-3′-one], the concentration for a half-maximal effect (EC50) came out at 452 nM. Consider `O=C(c1ccc(F)cc1F)N1CCC2(CC1)O[C@@H]1CC[C@@H](c3ccccc3)N1C2=O` [Example 5.11, (5′S,7a′R)-1-(2,4-difluoro-benzene-1-carbonyl)-5′-phenyltetrahydro-3′H-spiro[piperidine-4,2′-pyrrolo[2,1-b][1,3]oxazol]-3′-one], for which the 50% effective concentration (EC50) was less than 25 nM.

Turning to `Cn1cc(C(=O)N2CCC3(CC2)O[C@@H]2CC[C@@H](c4cc(F)cc(F)c4)N2C3=O)cn1` [Example 5.53, (5′S,7a′R)-5′-(3,5-difluoro-phenyl)-1-(1-methyl-1H-pyrazole-4-carbonyl)tetra-hydro-3′H-spiro[piperidine-4,2′-pyrrolo[2,1-b]oxazol]-3′-one], the EC50 was found to be 509 nM.

On to `N#Cc1ccc(N2CCC3(CC2)O[C@@H]2CC[C@@H](c4cc(F)cc(F)c4)N2C3=O)nn1` [Example 4.100, 6-((5′S,7a′R)-5′-(3,5-difluorophenyl)-3′-oxotetrahydro-3′H-spiro[piperidine-4,2′-pyrrolo[2,1-b]oxazol]-1-yl)pyridazine-3-carbonitrile], for which the EC50 stood at 240 nM. As for `O=C(c1ccc2nscc2c1)N1CCC2(CC1)O[C@@H]1CC[C@@H](c3cc(F)cc(F)c3)N1C2=O` [Example 6.42, (5′S,7a′R)-1-(2,1-benzothiazole-5-carbonyl)-5′-(3,5-difluorophenyl)tetra-hydro-3′H-spiro [piperidine-4,2′-pyrrolo[2,1-b][1,3]oxazol]-3′-one], the concentration for a half-maximal effect (EC50) was less than 25 nM. As to `CC1CN(c2cccc3ncnn23)CCC12O[C@@H]1CC[C@@H](c3ccccc3)N1C2=O` (stereo partly drawn) [Example 4.243, (4R,5′S,7a′R)-3-methyl-5′-phenyl-1-([1,2,4]triazolo[1,5-a]pyridin-5-yl)tetrahydro-3′H-spiro[piperidine-4,2′-pyrrolo[2,1-b] [1,3]oxazol]-3′-one], the concentration giving a half-maximal response (EC50) came to 26.3 nM. For `O=C(c1ccccc1)N1CCC2(CC1)O[C@@H]1CC[C@@H](c3ccc4sccc4c3)N1C2=O` [Example 17.2, (5′S,7a′R)-5′-(benzo[b]thiophen-5-yl)-1-benzoyltetrahydro-3′H-spiro[piperidine-4,2′-pyrrolo[2,1-b]oxazol]-3′-one], the EC50 came out at 26.1 nM. Turning to `COc1cccc(C(=O)N2CCC3(CC2)O[C@@H]2CC[C@@H](c4cc(F)cc(F)c4)N2C3=O)c1` [Example 6.10, (5′S,7a′R)-5′-(3,5-difluorophenyl)-1-(3-methoxybenzene-1-carbonyl)tetrahydro-3′H-spiro[piperidine-4,2′-pyrrolo[2,1-b] [1,3]oxazol]-3′-one], the EC50 was less than 25 nM.

Turning to `NC(=O)c1cc(N2CCC3(CC2)O[C@@H]2CC[C@@H](c4cc(F)cc(F)c4)N2C3=O)ncn1` [Example 4.185, 6-[(5′S,7a′R)-5′-(3,5-difluorophenyl)-3′-oxotetrahydro-1H,3′H-spiro[piperidine-4,2′-pyrrolo[2,1-b] [1,3]oxazol]-1-yl]pyrimidine-4-carboxamide], the EC50 stood at 83 nM. Take `O=C1N2[C@@H](CC[C@H]2c2cc(F)cc(F)c2)OC12CCN(c1ccc(OCC3CCO3)c3ccnn13)CC2` (mixture of isomers) [Example 19.5, (5′S,7a′R)-5′-(3,5-difluorophenyl)-1-(4-(((R and S)-oxetan-2-yl)methoxy)pyrazolo [1,5-a]pyridin-7-yl)tetrahydro-3′H-spiro[piperidine-4,2′-pyrrolo[2,1-b]oxazol]-3′-one, TFA salt]: the EC50 worked out at 208 nM.

In general, EC50 refers to the midpoint of the concentration-response curve.
